SMILES strings stand for the structures. Entries after “also recorded” stand apart in the source; their conditions may differ.

The subject of series [1] is oxazolone-induced ear swelling in CD-1 mice. Briefly: mouse oxazolone-induced contact hypersensitization (MOCH), ear swelling. The series is classed as in vivo. The note with it: for inhibition in vivo at 1 mg: topical to ear, mouse, 24 hours after oxazolone challenge, read-out: Oxazolone Ear Swelling (MOCH) % inhibition vs. Vehicle at 1 mg; for topical antiinflammatory activity in the oxazolone model (in words): mouse ear. The protocol: Several triphenylpropanamide compounds of this invention, having varying affinities for the human glucocorticoid receptor, were tested for topical antiinflammatory activity in mouse ear inflammation models. […] Compounds having receptor affinities closer to hydrocortisone were as nearly active as hydrocortisone in suppressing mouse oxazolone-induced contact hypersensitization (MOCH) and phorbol ester-induced ear edema. The in vivo studies of this example were conducted as follows.
In determining the MOCH using the compounds of this invention, albino male CD-1 mice, 7-9 weeks old were induced on the shaved abdomen with 50 μl of 3% oxazolone in acetone/corn oil (Day 0). On Day 5, a 20 μl volume of 2% oxazolone in acetone was applied to the dorsal left ear of the mouse. Compounds (made in ethanol/propylene glycol, 70:30) were applied to the left ear in 20 μl volume, one hour after oxazolone challenge. The right ear was not treated. The mice were sacrificed by carbon dioxide inhalation 24 hours after oxazolone challenge, the left and right ears were removed and a 7 mm biopsy was removed from each ear and weighed. The difference in biopsy weights between the right and left ears was calculated. Antiinflammatory effects of compounds were evident as an inhibition of the increase in ear weight.

In turn, `O=C(Cc1ccccc1Cl)NCC(c1ccccc1)C(c1ccccc1)c1ccccc1` (centres unmarked) [Compound 2] came in with a melting point of 140.5 to 141.2 °C. Besides, the inhibition in vivo at 1 mg in series [1] stood at 4%. Compound `O=C(Cc1ccc(Cl)cc1)NCC(c1ccccc1)C(c1ccccc1)c1ccccc1` (centres unmarked) [Compound 3] yielded a melting point of 168.4 to 170.9 °C. `Cc1ccc(CC(=O)NCC(c2ccccc2)C(c2ccccc2)c2ccccc2)cc1` (centres unmarked) [Compound 4] had a melting point of 142.3 to 143.6 °C. Moreover, in series [1], the inhibition in vivo at 1 mg is 1%. For `COc1ccc(CC(=O)NCC(c2ccccc2)C(c2ccccc2)c2ccccc2)cc1` (centres unmarked) [Compound 6], in that order: 157 to 159 °C and 38%. `COc1ccc(CC(=O)NCC(c2ccccc2)C(c2ccccc2)c2ccccc2)cc1OC` (centres unmarked) [Compound 7] gave a melting point of 123 to 124.5 °C. Same read-out and setting: the same measure for `O=C(Cc1c(Cl)cccc1Cl)NCC(c1ccccc1)C(c1ccccc1)c1ccccc1` (centres unmarked) [Compound 8]: 165.2 to 166.5 °C. For the compound `O=C(Cc1ccc(Cl)c(Cl)c1)NCC(c1ccccc1)C(c1ccccc1)c1ccccc1` (centres unmarked) [Compound 9], the melting point is 65 to 68 °C. In addition, in series [1], the inhibition in vivo at 1 mg worked out at 18%. For `O=C(Cc1ccccc1C(F)(F)F)NCC(c1ccccc1)C(c1ccccc1)c1ccccc1` (centres unmarked) [Compound 10], in that order: 109 to 111.5 °C and 19%. The compound `O=C(Cc1cccc(C(F)(F)F)c1)NCC(c1ccccc1)C(c1ccccc1)c1ccccc1` (centres unmarked) [Compound 11] gave a melting point of 108.8 to 111.3 °C. Moreover, the inhibition in vivo at 1 mg in series [1] was found to be 33%.

Regarding `O=C(Cc1ccc(C(F)(F)F)cc1)NCC(c1ccccc1)C(c1ccccc1)c1ccccc1` (centres unmarked) [Compound 12], the melting point was 119.5 to 120.3 °C. The inhibition in vivo at 1 mg in series [1] was 36%. For `O=C(NCC(c1ccccc1)C(c1ccccc1)c1ccccc1)C(c1ccccc1)c1ccccc1` (centres unmarked) [Compound 13], in that order: 178.7 to 179.8 °C and 10%. For `O=C(Cc1ccccc1)NCC(c1ccc(Cl)cc1)C(c1ccccc1)c1ccccc1` (centres unmarked) [Compound 14], the melting point lay in the range of 151.5 to 152.7 °C. In series [1], the inhibition in vivo at 1 mg was 11%. For the compound `O=C(Cc1ccccc1)NCC(c1ccccc1)C(c1ccc(F)cc1)c1ccc(F)cc1` (centres unmarked) [Compound 15], the “topical antiinflammatory activity in the oxazolone model (in words)” value (“topical antiinflammatory activity” for short) in series [1] was “moderate topical activity”. Compound `O=C(Cc1ccccc1Cl)NCC(c1ccccc1)C(c1ccc(F)cc1)c1ccc(F)cc1` (centres unmarked) [Compound 16] registered a melting point of 127.3 to 129.4 °C. Further, in series [1], the inhibition in vivo at 1 mg turned out to be 46% and the “topical antiinflammatory activity” value is “moderate topical activity”. With `O=C(CCc1ccccc1)NCC(c1ccccc1)C(c1ccccc1)c1ccccc1` (centres unmarked) [Compound 19], the melting point fell in the range of 107.4 to 109 °C. For the same compound, the inhibition in vivo at 1 mg in series [1] stood at 2%. On to `COc1ccccc1CCC(=O)NCC(c1ccccc1)C(c1ccccc1)c1ccccc1` (centres unmarked) [Compound 20], for which the melting point lay in the range of 137 to 140 °C. Moreover, the inhibition in vivo at 1 mg in series [1] was 32%. On to `O=C(CCc1ccccc1Cl)NCC(c1ccccc1)C(c1ccccc1)c1ccccc1` (centres unmarked) [Compound 22], for which the melting point was in the range of 135 to 135.8 °C. Also, in series [1], the inhibition in vivo at 1 mg was 15%. In turn, `COc1ccccc1CCC(=O)NCC(c1ccccc1)C(c1ccc(F)cc1)c1ccc(F)cc1` (centres unmarked) [Compound 23] showed a melting point of 78.9 to 80.9 °C. In series [1], the inhibition in vivo at 1 mg was 41% and the “topical antiinflammatory activity” value was “moderate topical activity”. On to `O=C(CCCc1ccccc1)NCC(c1ccccc1)C(c1ccccc1)c1ccccc1` (centres unmarked) [Compound 24], for which the melting point is 78.1 to 81 °C. The inhibition in vivo at 1 mg in series [1] was determined as 21%. For `O=S(=O)(Cc1ccccc1)NCC(c1ccccc1)C(c1ccccc1)c1ccccc1` (centres unmarked) [Compound 25], in that order: 172.9 to 174.2 °C and 9%.

`Cc1ccc(S(=O)(=O)NCC(c2ccccc2)C(c2ccccc2)c2ccccc2)cc1` (centres unmarked) [Compound 26] showed a melting point of 139.7 to 142.1 °C. Moreover, in series [1], the inhibition in vivo at 1 mg was -5%.

`O=C(CS(=O)(=O)c1ccccc1)NCC(c1ccccc1)C(c1ccccc1)c1ccccc1` (centres unmarked) [Compound 27] had a melting point of 186.9 to 187.5 °C. For the same compound, the inhibition in vivo at 1 mg in series [1] stood at 20%.

`Cc1ccc(S(=O)(=O)CC(=O)NCC(c2ccccc2)C(c2ccccc2)c2ccccc2)cc1` (centres unmarked) [Compound 28] registered a melting point of 190.3 to 191.9 °C. For the same compound, the inhibition in vivo at 1 mg in series [1] amounted to 28%. The compound `O=C(Cc1cccs1)NCC(c1ccccc1)C(c1ccccc1)c1ccccc1` (centres unmarked) [Compound 29, N-(2-thiophene)acetyl-2,3,3-triphenylpropylamine] showed a melting point of 130 to 132 °C. In addition, in series [1], the inhibition in vivo at 1 mg was determined as 83% and the “topical antiinflammatory activity” value is reported as “equiactive with hydrocortisone; also recorded: inhibited ear swelling in a dose-dependent manner”. The compound `Cc1ccc(C(=O)NCC(c2ccccc2)C(c2ccccc2)c2ccccc2)s1` (centres unmarked) [Compound 30] showed a melting point of 183.5 to 185 °C. In series [1], the inhibition in vivo at 1 mg came out at 21%. `O=C(Cc1cccs1)NCC(c1ccccc1)C(c1ccc(F)cc1)c1ccc(F)cc1` (centres unmarked) [Compound 31] showed a melting point of 84.9 to 85.3 °C. Also, the inhibition in vivo at 1 mg in series [1] was 14%.

`Cc1ccc(CC(=O)NCC(c2ccccc2)C(c2ccc(F)cc2)c2ccc(F)cc2)s1` (centres unmarked) [Compound 32]: the melting point fell in the range of 127.9 to 128.9 °C. In series [1], the inhibition in vivo at 1 mg was found to be 83% and the “topical antiinflammatory activity” value was “equiactive with hydrocortisone; also recorded: inhibited ear swelling in a dose-dependent manner”. Compound `O=C(Cc1cccs1)NCC(c1ccc(I)cc1)C(c1ccccc1)c1ccccc1` (centres unmarked) [Compound 33] had a melting point of 127 to 130 °C. Also, the inhibition in vivo at 1 mg in series [1] was 74%. For `O=C(Cc1cccs1)NCC(c1ccc(Cl)cc1)C(c1ccccc1)c1ccccc1` (centres unmarked) [Compound 34], in that order: 126.3 to 127 °C and 29%. `O=C(Cc1ccsc1)NCC(c1ccc(Cl)cc1)C(c1ccccc1)c1ccccc1` (centres unmarked) [Compound 35] returned a melting point of 126.4 to 127.9 °C. Further, the inhibition in vivo at 1 mg in series [1] was 36%.

Compound `O=C(Cc1ccsc1)NCC(c1ccccc1)C(c1ccccc1)c1ccccc1` (centres unmarked) [Compound 36] gave a melting point of 135 to 138 °C. Besides, the inhibition in vivo at 1 mg in series [1] stood at 13%.

As for `O=C(CCCc1cccs1)NCC(c1ccccc1)C(c1ccccc1)c1ccccc1` (centres unmarked) [Compound 37], the melting point was 105.5 to 106.9 °C. Also, the inhibition in vivo at 1 mg in series [1] is 25%. For `O=C(C=Cc1cccs1)NCC(c1ccccc1)C(c1ccccc1)c1ccccc1` (centres unmarked) [Compound 38], in that order: 217.3 to 218.9 °C and 13%. For `O=C(C=Cc1ccsc1)NCC(c1ccccc1)C(c1ccccc1)c1ccccc1` (centres unmarked) [Compound 39], in that order: 204.8 to 206.5 °C and 24%. For `O=S(=O)(NCC(c1ccccc1)C(c1ccccc1)c1ccccc1)c1cccs1` (centres unmarked) [Compound 40], in that order: 169 to 170.9 °C and 15%.

On to `O=S(=O)(NCC(c1ccc(Cl)cc1)C(c1ccccc1)c1ccccc1)c1cccs1` (centres unmarked) [Compound 41], for which the melting point fell in the range of 180.4 to 181.9 °C. The inhibition in vivo at 1 mg in series [1] was 3%. For `O=C(NCC(c1ccccc1)C(c1ccccc1)c1ccccc1)c1ccsc1` (centres unmarked) [Compound 42], in that order: 153.5 to 154.7 °C and 27%. For `O=C(NCC(c1ccccc1)C(c1ccccc1)c1ccccc1)c1cc2ccccc2s1` (centres unmarked) [Compound 43], in that order: 218.3 to 218.8 °C and 47%. For `CN(CC(c1ccccc1)C(c1ccccc1)c1ccccc1)C(=O)Cc1cccs1` (centres unmarked) [Compound 44], in that order: 107 to 109.3 °C and 3%. As to `O=C(NCC(c1ccccc1)C(c1ccccc1)c1ccccc1)Nc1ccccc1Cl` (centres unmarked) [Compound 52], the melting point lay in the range of 210 to 211 °C.

For the compound `O=C(NCC(c1ccccc1)C(c1ccccc1)c1ccccc1)Oc1ccc2ccccc2c1` (centres unmarked) [Compound 59], the melting point was in the range of 151 to 152 °C. Same read-out and setting: the result for `O=C(Cc1cccs1)NCC(c1ccccc1)C1c2ccccc2-c2ccccc21` (centres unmarked) [Compound 71] reads 128.7 to 130.5 °C; that for `O=C(Cc1ccccc1)NCC(c1ccccc1)C1c2ccccc2CCc2ccccc21` (centres unmarked) [Compound 73], 172.7 to 174.6 °C.

In the case of `O=C(Cc1ccccc1)NCC1(c2ccccc2)CC1(c1ccccc1)c1ccccc1` (centres unmarked) [Compound 78], the melting point was 150 to 152 °C.

Compound `CC(C)(C)C(=O)NCC1(c2ccccc2)CC1(c1ccccc1)c1ccccc1` (centres unmarked) [Compound 86] registered a melting point of 121 to 122 °C. As to `O=C(Cc1ccc(Cl)cc1)NCC(c1ccc2c(c1)OCO2)C(c1ccccc1)c1ccccc1` (centres unmarked) [Compound 98], the “topical antiinflammatory activity” value in series [1] was “equiactive with hydrocortisone”.

Regarding `C[C@]12CCC(=O)C=C1CC[C@@H]1[C@@H]2[C@@H](O)C[C@@]2(C)[C@H]1CC[C@]2(O)C(=O)CO` [hydrocortisone, reference compound], the inhibition in vivo at 1 mg in series [1] fell in the range of 75 to 85%.

The values are drawn from patent US6372779B1, “Anti-inflammatory compounds” (Ortho Pharmaceutical Corporation, priority 1997, dated 2002).
